In article PMC4427575, “Functional screening system for yeast-secreted peptides acting on G-protein coupled receptors” (AMB Express, 2015):

System: class A GPCR SST receptor
Assay: Effect of FLAG fusion on somatostatin (data not shown)
Details: result in words

somatostatin with FLAG fusion: FLAG fusion of somatostatin, endogenous circular peptide agonist acting on class A GPCR SST receptor
effect of the FLAG fusion: beneficial effect
